Values of other authors as cited in patent publication US20040157848A1, “Methods and compositions for the treatment of herpes virus infections using cyclooxygenase-2 selective inhibitors or cyclooxygenase-2 inhibitors in combination with antiviral agents” (Pharmacia Corporation, priority 2002, published 2004).

Columns and labels:
herpes virus = settings: supplementation with exogenous GSH, in vitro
[1] = test system: cytomegalovirus induced reactive oxygen species; settings: cytomegalovirus infected human smooth muscle

Structure (SMILES)	inhibition of the replication of herpes virus (herpes virus)	cytomegalovirus induced reactive oxygen species [1]
N[C@@H](CCC(=O)N[C@@H](CS)C(=O)NCC(=O)O)C(=O)O [GSH, glutathione]	over 99%	
CC(=O)Oc1ccccc1C(=O)O [aspirin]		reduces
